Measured values taken from paper PMC7931226 (Pharmacology Research & Perspectives, 2021).

What was measured:
[1] = biological target: T1, Bcrp in the gut and biliary compartments (Rattus norvegicus, UniProt Q80W57); assay: Oral PK of BCRP substrates with constant infusion of elacridar; type: in vivo; settings: oral substrate with constant infusion of elacridar
T1 sequence (Q80W57 1-657): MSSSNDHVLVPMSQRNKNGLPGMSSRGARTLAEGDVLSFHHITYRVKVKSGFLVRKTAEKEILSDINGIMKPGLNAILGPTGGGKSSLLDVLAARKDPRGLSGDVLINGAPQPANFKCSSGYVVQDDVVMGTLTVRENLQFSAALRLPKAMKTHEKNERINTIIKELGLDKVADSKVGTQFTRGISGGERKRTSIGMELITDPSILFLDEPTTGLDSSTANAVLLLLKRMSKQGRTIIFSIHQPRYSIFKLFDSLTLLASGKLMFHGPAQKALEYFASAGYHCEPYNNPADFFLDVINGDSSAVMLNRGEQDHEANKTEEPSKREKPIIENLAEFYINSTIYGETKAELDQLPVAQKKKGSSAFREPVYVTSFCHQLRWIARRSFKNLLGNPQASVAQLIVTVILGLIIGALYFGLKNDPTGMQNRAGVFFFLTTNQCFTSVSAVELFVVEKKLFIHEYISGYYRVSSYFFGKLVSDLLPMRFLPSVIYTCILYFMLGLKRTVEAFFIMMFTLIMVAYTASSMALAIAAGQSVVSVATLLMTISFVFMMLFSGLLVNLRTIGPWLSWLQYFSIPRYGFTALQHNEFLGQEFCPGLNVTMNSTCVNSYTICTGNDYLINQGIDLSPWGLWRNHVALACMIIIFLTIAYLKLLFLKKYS

[2] = Elacridar plasma and brain exposure, constant infusion in rats; type: in vivo, Sprague Dawley rats; settings: rat; for concentration at 4 h: Sprague Dawley, intravenous
[3] = Rat plasma protein binding; type: in vitro ADME
[4] = Tolerability in rats; type: in vivo
[5] = test system: MDCK-BCRP cells; settings: range of substrates, well documented (ref not given); cited from earlier work
[6] = test system: Caco-2 cells; settings: range of substrates, well documented (ref not given); cited from earlier work
[7] = test system: P-gp and Bcrp (rat, blood-brain barrier); assay: In vivo efflux ratio; parameters: species or system Sprague Dawley rats; settings: Sprague Dawley, intravenous, with elacridar 8.9 mg/hr/kg, 4.5-hour constant infusion
[8] = test system: BCRP; settings: BCRP knockout; cited from earlier work
[9] = Valspodar plasma and brain exposure, constant infusion or IV bolus in rats; type: in vivo, Sprague Dawley rats; settings: rat; for concentration at 4 h: Sprague Dawley, plasma, intravenous
[10] = test system: rat P-gp at the BBB; assay: In vivo efflux ratio; parameters: species or system Sprague Dawley rats; settings: constant infusion, inhibition of P-gp at the BBB
[11] = test system: P-gp; settings: ref 26 (Smith et al, 1998); cited from earlier work
[12] = constant infusion, based upon 3x the half-life

CC[C@@]1(O)C(=O)OCc2c1cc1n(c2=O)Cc2cc3c(CN(C)C)c(O)ccc3nc2-1 [topotecan]
clearance (calculated t1/2 and liver concentrations) [1]: not impacted

O=C(O)c1cc(/N=N/c2ccc(S(=O)(=O)Nc3ccccn3)cc2)ccc1O [sulfasalazine]
increase in liver concentrations ([1]; 8 hours post-dose): 4 fold
half-life ([1]; up to 8 hours post-dose): significant increase

COc1cc2c(cc1OC)CN(CCc1ccc(NC(=O)c3cccc4c(=O)c5cccc(OC)c5[nH]c34)cc1)CC2 [elacridar, 9,10‐dihydro‐5‐methoxy‐9‐oxo‐N‐[4‐[2‐(1,2,3,4‐tetrahydro‐6,7‐dimethoxy‐2‐isoquinolinyl)ethyl]phenyl]‐4‐acridine‐carboxamide]
concentration at 4 h ([2]; brain, 8.9 mg/hr/kg, total drug in brain, elacridar 8.9 mg/hr/kg constant infusion): > 45000 ng/g
concentration at 4 h ([2]; plasma, 8.9 mg/hr/kg, Elacridar (total plasma), elacridar 8.9 mg/hr/kg, 4.5-hour constant infusion, mean): > 2000 ng/mL
concentration at 4 h ([2]; plasma, 8.9 mg/hr/kg, steady state free plasma, elacridar 8.9 mg/hr/kg constant infusion (maximum)): 35 to 70 nM
concentration at 4 h ([2]; plasma, free plasma exposure, range over doses, 0.009 to 8.9 mg/hr/kg constant infusion, 1.5% rat plasma free fraction): 0.025 to 49 ng/mL
concentration at 4 h ([2]; plasma, total plasma exposure (mean), range over doses, 0.009 to 8.9 mg/hr/kg constant infusion over 4.5 hours): 1.6 to 3270 ng/mL
time to steady state in plasma [2, 12]: ≤ 2.5 h
free in rat plasma (free fraction) ([3]; well known (ref 27), confirmed in-house): 1.5%
side effects ([4]; any study conditions up to 8-hour duration): no negative side effects were observed
IC50 [5]: 0.3 µM
IC50 [6]: 0.6 µM

COc1ccc(Cl)cc1C(=O)NCCc1ccc(S(=O)(=O)NC(=O)NC2CCCCC2)cc1 [glyburide]
efflux ratio at 4 h [7]: 5.4
increase in placental tissue concentration [8]: 2.5 fold

C/C=C/C[C@@H](C)C(=O)[C@H]1C(=O)N[C@@H](C(C)C)C(=O)N(C)CC(=O)N(C)[C@@H](CC(C)C)C(=O)N[C@@H](C(C)C)C(=O)N(C)[C@@H](CC(C)C)C(=O)N[C@@H](C)C(=O)N[C@H](C)C(=O)N(C)[C@@H](CC(C)C)C(=O)N(C)[C@@H](CC(C)C)C(=O)N(C)[C@@H](C(C)C)C(=O)N1C [valspodar]
concentration at 4 h ([9]; 8 mg/hr/kg, free plasma exposure, maximum soluble dose 8 mg/hr/kg constant infusion): 2140 nM
concentration at 4 h ([9]; free plasma exposure (mean), range over doses, 0.09 to 8 mg/hr/kg constant infusion over 4.5 hours, rat plasma binding = 92%): 32 to 2590 ng/mL
time to steady state in plasma [9, 12]: ≤ 2.5 h
minimal (lowest) efficacious dose [10]: 0.9 mg/h/kg
rat plasma binding ([3]; mean): 92%
side effects ([4]; IV bolus doses at 10 mg/kg or higher and repeat doses of 5 mg/kg or higher with less than 2 h between doses): lethargy and increased urination
side effects ([4]; constant infusion 0.9 mg/hr/kg and 2.7 mg/hr/kg up to 8 hours): No side effects were observed
side effects ([4]; constant infusion, highest dose 8 mg/hr/kg): some instances were observed
decrease in in vitro efficacy from serum binding [11]: 23 fold
